Values of other authors as cited in patent US20150031737A1, “STABILIZED CONTROLLED-RELEASE PHARMACEUTICAL COMPOSITION COMPRISING GLICLAZIDE” (RANBAXY LABORATORIES LIMITED, priority 2012, published 2015).

Cc1ccc(S(=O)(=O)NC(=O)NN2CC3CCCC3C2)cc1 (stereo not shown) [Gliclazide]
pKa: about 5.8
